From publication PMC5321434, “Dihydrobenz[e][1,4]oxazepin-2(3H)-ones, a new anthelmintic chemotype immobilising whipworm and reducing infectivity in vivo” (PLoS Neglected Tropical Diseases, 2017)

System: adult T. muris
Experiment: Ex vivo adult T. muris automated motility assay (primary/secondary screen at 100 μM and dose-response)
Parameters: species or system Trichuris muris
Details: 100 μM; for COMBINED_SCREEN_ACTIVITY: combined primary and secondary screen minus log fold change in movement, adult T. muris; for PRIMARY_SCREEN_MINUS_LOG_FOLD_CHANGE_MOVEMENT: primary screen, adult T. muris motility
Method: Severe combined immune deficiency (SCID) mice were bred in the Biological Services Facility at the University of Manchester. Both male and female SCID mice were infected with a high dose of 200 infective embryonated T. muris eggs via oral gavage. At day 35 post-infection, groups of 5 mice were killed and their […] colons removed. Guts were opened longitudinally, washed with pre-warmed Roswell Park Memorial Institute (RPMI) 1640 media supplemented with penicillin (500U/ml) and streptomycin (500μg/ml) and adult T. muris worms gently removed using fine forceps. Worms removed from SCID mice were maintained in RPMI-1640 media supplemented with penicillin (500U/ml) and streptomycin (500μg/ml) at approximately 37°C and studied on the same day. Using fine forceps, individual live worms were placed into 96 well plates containing 75μl of RPMI-1640 medium supplemented with penicillin (500U/ml) and streptomycin (500μg/ml) plus 1% final concentration of DMSO or compound dissolved in DMSO. In the primary screen the test compound concentration was 100μM. Plates were then incubated at 37°C, 5% CO2, and motility was analysed after 24 hours. Worm movement was quantified using an automated motility assay. This system gives an estimate of worm movement in each well by thresholding and quantifying pixel intensity variance over time. An earlier version of this system has been previously described. One adult T. muris worm was used per well, with one well per compound in each replicate of the primary screen. The primary screen was repeated each week for a period of four weeks giving four independent biological replicates from separate parasite batches for each compound. Dose-response curves were calculated with the four factor log-logistic model using the R package drc. The primary screen was carried out at 100μM final concentration. Assay plates were assigned unique IDs and statistical analysis was performed without knowledge of compound identities using R scripts. Once hit wells were identified, well/plate positions were mapped to compound identities using DataWarrior [28]. […] Compounds identified as having encouraging activity from the DMSO solution samples were then resynthesized for confirmatory testing.

Structure (SMILES) | COMBINED_SCREEN_ACTIVITY | PRIMARY_SCREEN_MINUS_LOG_FOLD_CHANGE_MOVEMENT
N#Cc1cccc(-c2ccc3c(c2)N(Cc2ccccc2)C(=O)COC3)c1 [Compound 89] | 0.3109 | 0.3109
CC(C)N1C(=O)COCc2ccc(Br)cc21 [Compound 19] | -1.507 | -1.507
CC(=O)Nc1cccc(-c2ccc3c(c2)N(CCc2ccccc2)C(=O)COC3)c1 [Compound 164] | 1.82 | 1.82
COc1cccc(CN2C(=O)COCc3ccc(Br)cc32)c1 [Compound 104] | -1.975 | -1.975
COCCN1C(=O)COCc2ccc(-c3ccc(OC)cc3)cc21 [Compound 46] | -1.143 | -1.143
O=C1COCc2cc(-c3cc(F)cc(F)c3)ccc2N1CCN1CCOCC1 [Compound 138] | -0.5965 | -0.5965
O=C1COCc2cc(Br)ccc2N1CC1CC1 [Compound 26] | -0.588 | -0.588
Cc1ccccc1-c1ccc2c(c1)N(CCN1CCOCC1)C(=O)COC2 [Compound 112] | -1.303 | -1.303
O=C1COCc2ccc(-c3ccc4ccccc4c3)cc2N1CCN1CCOCC1 [Compound 167] | 3.214 | 3.214
COc1ccccc1-c1cccc2c1COCC(=O)N2Cc1ccccc1 [Compound 94] | 10.5493 | 10.5493
COCCN1C(=O)COCc2ccc(-c3cccc(F)c3)cc21 [Compound 38] | -1.255 | -1.255
COCCN1C(=O)COCc2ccc(-c3ccc(F)c(Cl)c3)cc21 [Compound 83] | 1.936 | 1.936
O=C1COCc2ccc(-c3cnc4ccccc4c3)cc2N1CCN1CCOCC1 [Compound 173] | 0.2312 | 0.2312
CC(C)N1C(=O)COCc2ccc(-c3cccnc3)cc21 [Compound 13] | -0.8665 | -0.8665
N#Cc1cccc(-c2ccc3c(c2)N(CCN2CCOCC2)C(=O)COC3)c1 [Compound 132] | -2.183 | -2.183
O=C1COCc2ccc(-c3cccnc3)cc2N1CC1CC1 [Compound 25] | -1.503 | -1.503
CN1C(=O)COCc2c(-c3ccc4c(c3)OCO4)cccc21 [Compound 27] | -0.9234 | -0.9234
Cc1ccc(CN2C(=O)COCc3cc(-c4cccc(CO)c4)ccc32)cc1 [Compound 123] | -0.1619 | -0.1619
COc1ccccc1-c1ccc2c(c1)N(Cc1ccccc1)C(=O)COC2 [Compound 96] | -0.4906 | -0.4906
Cn1cc(-c2ccc3c(c2)COCC(=O)N3Cc2ccccc2Cl)cn1 [Compound 113] | 0.5472 | 0.5472
COc1ccccc1-c1ccc2c(c1)COCC(=O)N2Cc1ccc(C)cc1 [Compound 120] | -1.664 | -1.664
O=C1COCc2ccc(-c3cc(F)cc(F)c3)cc2N1CCN1CCOCC1 [Compound 139] | -1.36 | -1.36
COc1ccc(F)cc1-c1ccc2c(c1)COCC(=O)N2CCN1CCOCC1 [Compound 163] | -0.1485 | -0.1485
Cc1ccc(-c2ccc3c(c2)N(CCN2CCOCC2)C(=O)COC3)cc1C [Compound 134] | -2.044 | -2.044
